Experimental data published in patent publication US20230190707A1, “COMPOSITIONS AND METHODS FOR ENHANCING CANCER IMMUNOTHERAPY” (FRED HUTCHINSON CANCER CENTER, priority 2020, published 2023).
Like-named read-outs stand apart in the source and are kept apart here.

Tests used:
[1] = tested on: T cells stimulated with anti-CD3 and CD28 antibodies; assay: Gene expression program of activated T cells (RNA-seq); type: cell-based, mouse; conditions: ex vivo anti-CD3 and CD28 stimulation in presence of drug
Protocol: Plates were coated with 10 μg/mL anti-CD3 (clone 145-2C11, Biolegend Cat. 100302) and 2 μg/mL anti-CD28 (clone 37.51, Biolegend Cat. 102102) in PBS overnight at 4° C. and washed twice with cold PBS prior to use. CFSE-labeled CD5-selected splenic T cells from naïve C57BL/6J mice were obtained identically as for adoptive cell transfer, and 5×10^4 cells incubated with coated plates in the presence of splicing inhibitor drugs at the indicated concentrations, followed by analysis by standard flow cytometry on day 3. Of note, for RNA-seq analyses, T cells were not labeled with CFSE, and underwent activation for 4 days (96 hours) in the presence of various splicing modulator drugs to harmonize experimental conditions with RNA-seq analyses of tumors treated with splicing inhibitors. For the RNA-seq experiments only, T cells in all conditions were also incubated with IL-2 at 50 U/mL to maximize viability and yield.
Bulk lung and colon were homogenized using a Qiagen TissueRuptor. For all tissues and cell types, RNA was extracted using an RNeasy kit (Qiagen, Frederick, Md.) and quantified using a NanoDrop 8000 (ThermoFisher Scientific). A minimum of 500 ng of high-quality RNA (as determined by Agilent Bioanalyzer) per sample or replicate was used for library preparation. Poly(A)-selected, strand-specific (dUTP method) Illumina libraries were prepared with a modified TruSeq protocol and sequenced on the Illumina HiSeq 2000 (˜100M 2×101 bp paired-end reads per sample or replicate).

OT-1 T cells [2] = assay: Intracellular cytokine staining of OT-1 T cells; type: cell-based, mouse; conditions: higher doses
Protocol: OT-1 cells were prepared and incubated with ovalbumin-expressing tumors as described above in the LAMP-1 assay. For some experiments OT-1 cells were instead left unstimulated (DMSO) or treated with PMA 1 μg/mL+ionomycin 1 μM as a supraphysiologic stimulus. In all cases, T cells underwent a 5-6 hour incubation period in the presence of DMSO or splicing modulators at the indicated concentrations, and with brefeldin A and monensin present for the entire duration. Cells were subsequently washed, stained for surface markers, and then fixed/permeabilized for intracellular staining of the indicated cytokines according to manufacturer instructions (BD Biosciences).

[3] = tested on: CD8^+ T cell proliferation; assay: Mixed leukocyte reaction with BMDCs loaded with lysates of drug-treated MC38 cells; type: cell-based, mouse; conditions: wild-type BMDCs loaded with lysates of treated MC38 cells; day 5
Protocol: RBC lysed bone marrow obtained from the femurs and tibias of C57BL/6 or P2 microglobulin deficient mice (Jackson Laboratories Cat. 2087) were cultured with mouse IL-3 (PeproTech Cat. 213-13) and mouse FLT3 ligand (PeproTech Cat. 250-31L) both at 10 ng/mL each in RPMI+10% FCS for 7 days to generate bone marrow derived dendritic cells. Separately, […] MC38 treated with splicing inhibitors vs. DMSO or expressing chicken ovalbumin were harvested, washed and resuspended in sterile PBS, and subjected to five cycles of rapid freeze-thaw (alternating between 37° C. and dry ice/acetone) to generate a cell lysate. After brief centrifugation at 100×g, the soluble fraction in PBS was added to bone marrow derived DCs and left to incubate overnight for antigen phagocytosis in the presence of LPS (ThermoFisher Cat. 00-4976-93). DCs were subsequently washed three times to remove cell-free lysates and LPS and incubated in a 1:1 ratio with CFSE-labeled B6 splenic T cells (10^5 stimulators with 10^5 responders) as described above. The MLR was analyzed at day 5 by flow cytometry.

OT-1 T cells [4] = assay: LAMP-1 T cell degranulation assay; type: cell-based, mouse; conditions: higher doses
Protocol: OT-1 cells were generated as described for the cytotoxicity assay and incubated with ovalbumin-expressing tumor cell lines (pre-treated overnight with IFNγ 100 U/mL to upregulate cell-surface MHC I) in the presence of DMSO or varying concentrations of splicing modulator drugs as indicated, in the presence of LAMP-1 antibody for 5-6 hours under standard incubator conditions. After the first hour of incubation, BD GolgiPlug™ (brefeldin A) and BD GolgiStop™ (monensin) was added at […] respectively into cells. At the end of incubation, cells were washed and stained for cell surface markers prior to standard flow cytometry.

[5] = Histologic evaluation of immune-related tissue toxicities; type: in vivo, mouse; conditions: tumor-bearing mice
Protocol: Animal tissues were fixed in 4% paraformaldehyde, decalcified (for bone), dehydrated and paraffin embedded. Blocks were sectioned and stained with hematoxylin and eosin or anti-CD8. Images were acquired using an Axio Observer A1 microscope (Carl Zeiss, Oberkochen, Germany) or scanned using an Aperio AT slide scanner (Leica Biosystems, Buffalo Grove, Ill.). Automated quantification of infiltrating CD8^+ T cells was performed using HALO software (Indica labs, Albuquerque, N. Mex.). Pathologic evaluation of immune-related tissue toxicities was performed in a blinded fashion by one of the authors who is a trained pathologist (Ben Durham, MD).

donor T cells = assay: CFSE adoptive T cell transfer with in vivo splicing modulator treatment; conditions: mouse, in vivo
Protocol: Splenic T cells were obtained from B6 or CD45.1 donors by CD5 positive selection (Miltenyi Biotec, Cat. 130-049-301), labeled with CellTrace CFSE (ThermoFisher Cat. C34570) at 10 μM, and adoptively transferred by tail vein injection into lethally irradiated B6, Balb/c, or LP/J recipients, with […] labeled donor T cells transferred per recipient. All recipients were irradiated on day −1 prior to adoptive T cell transfer with 7 Gy as a single fraction and continuously received splicing inhibitor drugs or vehicle control at the indicated doses, from day −1 until day of sacrifice, with the initial dose of drug at least 4 hours after lethal irradiation. Indisulam and MS-023 were solubilized for in vivo administration and animals were treated as above. Pladienolide B (Tocris, Cat. 6070) and GEX1A (Cayman Chemicals, Cat. 25136) were both dissolved in vehicle (10% ethanol and 4% Tween-80 in sterile PBS) and administered i.p., with pladienolide B dosed at 10 mg/kg every other day, and GEX1A dosed at 1.25 mg/kg every four days. For in vivo use, EPZ015666 was dissolved in DMSO and solubilized in 0.5% methylcellulose in water to 20 mg/mL; animals were treated daily with 200 mg/kg by oral gavage.

[6] = tested on: bone marrow hematopoietic stem and progenitor cells; assay: M3434 methylcellulose colony assay; type: cell-based, mouse
Protocol: 25,000 red blood cell-lysed bone marrow mononuclear cells from C57BL/6 mice were plated in duplicates or triplicates in each well of a non-tissue-culture treated 6 well plate with M3434 methylcellulose media in the presence of splicing drugs at the indicated concentrations as per manufacturer's instructions (StemCell Technologies, Cat. 03434) and incubated for seven days prior to quantification of colonies by manual microscopy.

| Structure (SMILES) | genes normally upregulated upon T cell activation [1] | ability of OT-1 T cells to secrete IFNγ or TNFα (OT-1 T cells [2]) | CD8^+ T cell proliferation vs DMSO- or no lysate-pulsed control BMDCs [3] | ability of OT-1 T cells to degranulate intracellular cytolytic molecules (OT-1 T cells [4]) | histologic inflammation or immune infiltrates in skin, lung, gut, or liver [5] | in vivo T cell proliferation or activation in response to alloantigen (donor T cells) | hematopoiesis (colony formation) ([6]; micromolar doses, pladienolide B at nanomolar concentrations) | hematopoiesis (colony formation) [6] |
| --- | --- | --- | --- | --- | --- | --- | --- | --- |
| CC(C)Oc1ccc(-c2c[nH]cc2CN(C)CCN)cc1 [MS-023] | much milder changes | did not inhibit | more strongly promoted CD8^+ T cell proliferation | did not inhibit | did not result in overt histologic inflammation | minimal impairment | intact | – |
| NS(=O)(=O)c1ccc(S(=O)(=O)Nc2cccc3c(Cl)c[nH]c23)cc1 [indisulam] | much milder changes | did not inhibit | more strongly promoted CD8^+ T cell proliferation | did not inhibit | did not result in overt histologic inflammation | minimal impairment | – | intact |
